According to patent US11311514B2, “Pharmaceutical composition for preventing or treating pruritus, containing pyrazole derivative as active ingredient, and screening method for detecting same” (Seoul National University R&DB Foundation, priority 2017, dated 2022):

What was measured:
[1] = Solubility in blood (selection of final compound); format: physicochemical; details: result in words; no method given
[2] = test system: psoriatic mouse model (Aldara cream, 5% imiquimod); experiment: Pruritus evaluation in psoriatic mouse model; format: in vivo, C57BL6 mice; details: 30 mg/kg intraperitoneal on day 8 after 7 days Aldara cream; counted for 30 minutes; normal group 20.00, control group 71.00
Method: First, a psoriatic mouse model was constructed. A psoriatic mouse model was prepared according to the instruction described Pain. 2016 November; 2536-2543. Zoletil (15 mg/kg) was mixed with saline at the ratio of 1:1 and then mixed with Rompun (5 mg/kg), which was intraperitoneally injected in 7-week-old C57BL6 mice to anesthetize the mice. The mouse back was primarily depilated in the size of 2.5×2 cm using a clipper, and then secondly depilated using a straight blade. Vaseline cream was rubbed on the depilated area of the normal group for 7 days using a cotton swap. Aldara cream (62.5 mg, 5% imiquimod) was rubbed on the depilated area of the control group and the experimental group for 7 days using a cotton swap.
(§1) Next, pruritus evaluation in the psoriatic mouse model was performed. On day 8, the normal group and control group mice were intraperitoneally injected with 3% DMSO dissolved in physiological saline (0.9% saline) (50 ? /mouse). […] 30 minutes later, their behaviors were recorded with a digital camera for 30 minutes. The number of scratches was recorded while playing back the recorded video file on a computer. A continuous action of scratching the skin from when the mouse lifted its hind foot off the floor and to when the mouse put it back on the floor was considered 1 scratch, and the number of scratches counted for 30 minutes was used as index for evaluating pruritus.

[3] = molecular target: T1, MRGPR X1 (Homo sapiens, UniProt Q96LB2); experiment: MRGPR X1 screening assay (calcium dye fluorescence, chloroquine-stimulated); format: cell-based; details: Mrgpr X1 stable HEK 293T FRT cells; final 12 μM compound, 500 μM chloroquine, 0.2% DMSO
T1 construct: expressed in transfected cells
T1 sequence (Q96LB2 whole entry): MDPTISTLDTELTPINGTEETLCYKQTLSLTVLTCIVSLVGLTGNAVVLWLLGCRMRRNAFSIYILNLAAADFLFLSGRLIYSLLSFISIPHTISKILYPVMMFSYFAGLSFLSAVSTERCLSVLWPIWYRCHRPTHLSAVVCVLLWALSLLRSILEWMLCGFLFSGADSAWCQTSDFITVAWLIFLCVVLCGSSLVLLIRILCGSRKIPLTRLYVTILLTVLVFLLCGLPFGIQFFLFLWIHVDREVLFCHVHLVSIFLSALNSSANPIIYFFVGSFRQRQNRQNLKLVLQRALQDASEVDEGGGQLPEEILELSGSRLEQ
Method: Human MRGPRX1 gene was sub-cloned in pcDNA5 FRT vector, which was transfected into HEK 293T FRT cells. The cells were cultured in a 37° C., 5% CO2 incubator for 48 hours.
To confirm the amount with which a single colony is well formed, the transfected cells were serially diluted and then transferred and distributed on 100 mm dish evenly. The medium was replaced with a fresh medium containing 50/g/ ? of hygromycin every 3-4 days. The cells were cultured until colonies were formed.
Once colonies were formed, only a single colony was transferred to a 24 well plate, followed by culture. Then, well grown cells were transferred to a 6 well plate, followed by culture. Antibiotic selection was performed. […]
First, MRGPR X1 stable cells were counted to make 8000 cells/well, followed by seeding in a Poly-D-Lysine coated plate 384 well black/clear plate. […]
Upon completion of the incubation, dye was discarded and Na-HEPES buffer was added thereto (25 ? /well) for washing, and then buffer was added thereto (25 ? /well) again. 25 ? of the primary candidate material was added to each well of the assay plate containing 25 ? of buffer, followed by reading the plate (final 12 μM compound, 500 μM chloroquine, 0.2% DMSO). […]
The experimental results were analyzed using a microplate reader (Flexstaion Π^384, Molecular Devices). […]

[4] = test system: histamine mouse model; experiment: Pruritus evaluation in histamine mouse model; format: in vivo, C57BL6 mice; details: 30 mg/kg intraperitoneal, 30 min before histamine 500 μg s.c. dorsal; control group 118.38
Method: (§2) Seven week-old C57BL6 mice were placed in a new cage and adapted for 30 minutes before starting the experiment. As for the control group, 3% DMSO was dissolved in physiological saline (0.9% saline), which was intraperitoneally injected (50 ? /mouse). The animal model mice were intraperitoneally injected with the pharmaceutical composition of Example 1 (30 mg/kg) dissolved in physiological saline (0.9% saline) containing 3% DMSO (50 ? /mouse). The mice were also ? placed in the same cage above for 30 minutes.
(§3) Then, control and animal model mice were subcutaneously injected with 500 μg/50 ? of histamine on the dorsal side, and their behaviors were recorded with a digital video camera for 30 minutes. The number of scratches was recorded while playing back the recorded video file on a computer. A continuous action of scratching the skin from when the mouse lifted its hind foot off the floor and to when the mouse put it back on the floor was considered 1 scratch, and the number of scratches counted for 30 minutes was used as index for evaluating pruritus.

[5] = test system: chloroquine mouse model; experiment: Pruritus evaluation in chloroquine mouse model; format: in vivo, C57BL6 mice; details: 30 mg/kg intraperitoneal, 30 min before chloroquine 200 μg s.c. dorsal; control group 425.00
Method: as §2
as §3, with “200” for “500”, “chloroquine” for “histamine”

[6] = test system: dry skin mouse model; experiment: Pruritus evaluation in dry skin mouse model; format: in vivo, C57BL6 mice; details: 30 mg/kg intraperitoneal on Day 5 of acetone/ether/water treatment; recorded 30 min later; control group 130.00
Method: First, a dry skin mouse model was constructed. A dry skin mouse model was prepared according to the instruction described Jpn J Pharmacol. 2002 March; 88(3):285-92. ENTOBAR® was mixed with physiological saline (0.9% saline) at the ratio of 1:1, which was intraperitoneally injected in 7-week-old C57BL6 mice (20 ? /mouse) to anesthetize the mice. Then, the hair of the right nape was shaved using a clipper. Ethyl ether and acetone were mixed at the ratio of 1:1. The mixture was soaked in absorbent cotton and the right nape was rubbed with the absorbent cotton for 1 minute. Then, absorbent cotton soaked with water was used to rub in the same way. This process was performed once in the morning and once in the afternoon for 5 days.
as §1, with “dry skin” for “psoriatic”, “In” for “On day 8,”, “afternoon on Day 5, the” for “normal group and”

[7] = molecular target: T2, human histamine 1 receptor (hH1R) (Homo sapiens, UniProt P35367); experiment: Human histamine 1 receptor antagonist assay (calcium dye fluorescence, histamine-stimulated); format: cell-based; details: HEK 293T cells transiently expressing hH1R; final 12 μM compound, 1 μM histamine, 0.2% DMSO; control 5 μM diphenhydramine; read-out: reduction of fluorescence, taking the inhibition by histamine plus diphenhydramine as 100%
T2 construct: expressed in transfected cells; host or cells: HEK 293T cells, transient transfection
T2 sequence (P35367 whole entry): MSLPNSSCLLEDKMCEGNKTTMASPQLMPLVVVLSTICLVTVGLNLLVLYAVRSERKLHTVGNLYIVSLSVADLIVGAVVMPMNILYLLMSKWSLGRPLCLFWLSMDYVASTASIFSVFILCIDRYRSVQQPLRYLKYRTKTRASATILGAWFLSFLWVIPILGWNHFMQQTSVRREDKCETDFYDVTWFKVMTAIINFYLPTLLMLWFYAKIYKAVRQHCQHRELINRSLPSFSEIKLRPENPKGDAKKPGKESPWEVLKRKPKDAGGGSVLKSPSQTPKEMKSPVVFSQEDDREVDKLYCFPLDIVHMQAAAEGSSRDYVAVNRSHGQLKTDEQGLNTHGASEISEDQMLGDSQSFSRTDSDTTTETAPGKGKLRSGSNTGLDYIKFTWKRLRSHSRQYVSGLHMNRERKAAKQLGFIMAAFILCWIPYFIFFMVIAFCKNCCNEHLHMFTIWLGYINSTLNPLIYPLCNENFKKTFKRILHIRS
Method: HEK 293T cells were transiently transfected with 2 μg of human histamine 1 receptor, followed by seeding at the density of 4000 cells/well. The cells were cultured in a 37° C., 5% CO2 incubator for 48 hours.
The subsequent procedure was performed using Biomex FX. After eliminating the medium, flo-3 AM dye dissolved in Na-HEPES buffer (5 mM KCl, 2 mM MgCl2, 140 mM NaCl, 10 mM NaOH-HEPES, pH7.2) at the concentration of 2.5 μM was added to the plate (25 ? /well) of the vehicle and experimental groups, and flo-3 AM dye dissolved in Na-HEPES buffer containing 5 uM diphenhydramine dissolved therein at the concentration of 2.5 μM was added to the plate (25 ? /well) of the control group, followed by culture in a 37° C., 5% CO2 incubator for 30 minutes.
During the culture, a compound plate was prepared. […]
Upon completion of the incubation, dye was discarded and Na-HEPES buffer was added thereto (25 ? /well) for washing, and then buffer was added thereto (25 ? /well) again (excluding control group wells). […] Finally, 25 ? of the compound was added to each well of the assay plate containing 25 ? of buffer, followed by reading the plate (final 12 μM compound, 1 μM histamine, 0.2% DMSO).
The experimental results were analyzed using a microplate reader (Flexstaion Π^384, Molecular Devices). Fluorescence assay was performed (Ex 488 nm, Em 535 nm) at the intervals of 3.2 seconds for 80 seconds. […]

[8] = test system: mouse motor ability; experiment: Rota rod motor condition test; format: in vivo; details: 30 mg/kg intraperitoneal, tested after 30 minutes; Rota rod speed 4 to 40
Method: The test mouse was placed on the Rota rod device and then the speed was raised from 4 to 40 until the mouse fell. When the mouse fell, it was moved to a cage. The procedure was repeated three times a day for 3 consecutive days to adapt the mouse to the Rota rod device. After three days of adaptation, the mouse was moved to a cage where it was stabilized.
As for the control group, 3% DMSO was dissolved in physiological saline (0.9% saline), which was intraperitoneally injected (50 ? /mouse). The animal model mice were intraperitoneally injected with the pharmaceutical composition of Example 1 (30 mg/kg) dissolved in physiological saline (0.9% saline) containing 3% DMSO (50 ? /mouse). The mice were also placed in the same cage above for 30 minutes. The experiment above was repeated three times like the adaptation test above, and the average time of falling was calculated.

solubility in blood [1]: excellent solubility in blood
decline of fluorescence analysis result versus chloroquine alone [3]: approximately 54%
inhibition at 12 µM [7]: ~94%
Compound: Cc1ccc(-n2nc(C)cc2C(=O)NCCCC(=O)O)cc1 [Example 1]
average number of total scratches [2]: 1.00
average number of total scratches accumulated for 30 minutes [4]: 39.90 times
average number of total scratches accumulated for 30 minutes [5]: 150.50 times
average number of total scratches accumulated for 30 minutes [6]: 14.00 times
motor condition ability (average time of falling) versus control group [8]: no significant difference
